Experimental data taken from patent US20040053847A1, “Diastereomeric peptitdes and pharmaceutical compositions comprising them” (priority 2000, published 2004).
In brackets after ≈: the same amount, converted by molar mass. Square brackets hold non-standard residues; d marks the D form. Peptide text beside a SMILES is read from it.

Key:
[1] = tested on: Acinetobacter baumannii ATCC 19606
Protocol: (§1) The antibacterial activity of the peptides was examined in sterile 96-well plates (Nunc F96 microtiter plates) in a final volume of 100 μl as follows: Aliquots (50 μl) of a suspension containing bacteria at concentration of 1×10^6 Colony-Forming Units (CFU)/ml in culture LB (Lauria broth) medium were added to 50 μl of water containing the peptide in serial 2-fold dilutions in water. Inhibition of growth was determined by measuring the absorbance at 600 nm with a Microplate autoreader E1309 (Bio-tek Instruments), after an incubation time of 18-20 h at 37° C. Antibacterial activities were expressed as the minimal inhibitory concentration (MIC), the concentration at which 100% inhibition of growth was observed after 18-20 h of incubation. […]
(§2) The antibacterial activity of the resulting liposomal diastereomeric peptide preparations were examined as described in Example 2 above. The MICs of liposomal peptide 9 in various lipid compositions and peptide/lipid ratios (as described above), or of liposomes at lipid compositions equivalent to the loaded_liposomes (not shown) or peptide 9 alone, were determined using the following bacteria: Acinetobacter baumannii ATCC 19606, and Staphylococcus aureus ATCC 6538P.

[2] = tested on: Staphylococcus aureus ATCC 6538P
Protocol: as §1, §2

[3] = tested on: B16 F10 mouse melanoma cell line; test: In vitro anticancer activity, Trypan blue cell viability, LC50; conditions: 50% cell mortality after 24 h incubation, medium without serum
Protocol: The anticancer activity of the diastereomers 1, 2, 8, 9 and 10 was examined against B16 F10 mouse melanoma cell line. Melanoma cells were grown in RPMI-1640 medium supplemented with 10% fetal calf serum and antibiotics, at 37° C., in humidified atmosphere at 5% CO2 and 95% air. In addition, the cell-selectivity of the diastereomeric peptides was studied by examining their effect on NIH-3T3 normal fibroblasts cell line. NIH-3T3 mouse fibroblasts cells were grown in DMEM medium supplemented with 10% bovine calf serum and antibiotics under the same conditions as described above for B16 F10 mouse melanoma cells. Melanoma cells (2×10^5 cells ml^−1) or NIH-3T3 cells (2.5×10^5 cells ml^−1) were seeded in tissue culture plates (3.5 cm). After 48 h, cells were washed thrice with the corresponding medium. Then the cells were incubated at 37° C. in medium (without serum and antibiotics) in the presence of the tested diastereomeric peptides dissolved in PBS, at different concentrations. […] Following 24 h of incubation, the cells were harvested with trypsin (0.25%)-EDTA (0.05%) and centrifuiged for 10 min at 270×g. The precipitated cells were suspended in the corresponding medium and counted in a hemocytometer (Neubauer). Cell viability was determined by Trypan blue dye exclusion.

[4] = Cell selectivity, Trypan blue cell viability, LC50; type: cell-based, mouse; conditions: mouse, NIH-3T3 fibroblasts; 50% cell mortality after 24 h incubation, medium without serum; read-out: Lethal Concentration (LC50), NIH-3T3 fibroblasts
A549 lung carcinoma = type: cell-based, human; conditions: 24 h
Protocol: (§3) Aliquots of 100 μl of tumor cell suspension (about 2.5-5×10^3/well) were placed in 96-well microtiter plates in an atmosphere of 5% CO2 at 37° C. […] At the end of incubation, 20 μl of AlamarBlue 75% reagent was added to each well for another 6-hour incubation before detection of cell viability by fluorescence intensity. Fluorescence intensity was measured using a Spectraflour Plus plate reader with excitation at 530 nm and emission at 590 nm. The assays were used to detect changes in cell proliferation based on the ability of viable cells to cause AlamarBlue to change from its oxidized (non-fluorescent, blue) to a reduced (fluorescent, red) form. With the results obtained from the AlamarBlue reaction, cell proliferation can be quantified and metabolic activity of viable cells can be examined.

[5] = tested on: HT-29 colon adenocarcinoma; type: cell-based, human; conditions: 24 h
Protocol: as §3

[6] = tested on: MCF-7 breast adenocarcinoma; type: cell-based, human; conditions: 24 h
Protocol: as §3

[7] = tested on: PC-3 prostate adenocarcinoma; type: cell-based, human; conditions: 24 h
Protocol: as §3

[8] = tested on: SK-MEL- (ATCC HTB-70) malignant melanoma; type: cell-based, human; conditions: 24 h
Protocol: as §3

human breast MCF-7 cells = test: Xenograft model of human breast MCF-7 cells in SCID mice; type: in vivo; conditions: mouse, in vivo
Protocol: The in-vivo anticancer assay was conducted on SCID (Severe Combined Immune Deficiency) mice using the xenograft model of human breast MCF-7 cells. Groups of 6 SCID female mice weighing 18-20 g (6-week old), bred in an animal isolator (IVC racks under specific pathogen-free (SPF) conditions at 24±1° C., were used. Viable human breast carcinoma MCF-7 cells (ATCC HTB-22−1×10^7 cells in 0.2 ml of PBS) were injected subcutaneously (s.c.) into the dorsal side of SCID mice. 50 μg/mouse of estradiol benzoate was injected s.c. weekly as a supplement for 4 weeks. […] Mitomycin at a dose of 2 mg/kg was administered intraperitoneally (IP) twice a week for 5 doses. The tumor size, body weight and the signs of overt animal toxicity after each treatment were recorded and observed. At the end of the experiment, hematological analysis was carried out.

[9] = In vivo toxicity, single i.v. bolus injection in CD1 mice; parameters: species or system CD1 male mice
Protocol: The in vivo toxicity of the liposomal peptide 9 preparation composed of the lipids PC/PG (9:1 w/w) at a 10:1 w/w lipid/peptide ratio was examined. Groups of 5 CD1 male mice weighing 24-27 g (5-week old), bred in an animal isolator (IVC racks) under specific pathogen-free (SPF) conditions at 24±1° C., were used. Twelve mg/kg liposomal peptide 9 or peptide 9 alone dissolved in PBS in a dosing volume of 10 ml/kg, were administered by single i.v. bolus injection via the mice tail vein. In parallel, control groups received i.v. injections of equivalent liposomes alone or PBS in a dosing volume of 10 ml/kg.

CC(C)C[C@H](NC(=O)[C@H](CCCNC(=N)N)NC(=O)[C@@H](CC(C)C)NC(=O)[C@H](CC(C)C)NC(=O)[C@@H](N)CCCCN)C(=O)N[C@@H](CC(C)C)C(=O)N[C@H](CCCCN)C(=O)N[C@H](CCCCN)C(=O)N[C@@H](CC(C)C)C(=O)N[C@H](CC(C)C)C(=O)N[C@@H](CCCNC(=N)N)C(=O)N[C@@H](CC(C)C)C(=O)N[C@H](CC(C)C)C(=O)N[C@@H](CC(C)C)C(=O)N[C@@H](CCCCN)C(N)=O [Peptide 9, [D]-L^3,10,13,K^7,8-K4R2L9] (H-KL[dL]RLL[dK][dK]L[dL]RL[dL]LK-NH2)
MIC of liposomal peptide 9, A. baumannii [1]: 3.1 µg/mL
MIC of liposomal peptide 9, S. aureus [2]: 12.5 µg/mL
Lethal Concentration (LC50), B16-F10 melanoma [3]: 2 µg/mL
CC50 at 24 h [4]: 30 µg/mL (≈ 16.1 µM)
IC50 (A549 lung carcinoma): 1400 nM
IC50 [5]: 2200 nM
IC50 [6]: 3300 nM
IC50 [7]: 1600 nM
IC50 [8]: 1200 nM
PLT (human breast MCF-7 cells): 1.31e+06 µL⁻¹
RBC (human breast MCF-7 cells): 11.18 ± 0.11 × 10^6/μl
Reduction of RBC (human breast MCF-7 cells): only a slight reduction in RBC
Reduction of WBC and platelets (human breast MCF-7 cells): did not cause a reduction in WBC and platelets
WBC (human breast MCF-7 cells): 2220 µL⁻¹
Mortality ([9]; 12 mg/kg injected i.v.): 80%
Incidence of mortality ([9]; 12 mg/kg single i.v. injection): 4/5
